Target: T1, S1P Receptor 3 (S1PR3) (Mus musculus, UniProt Q9Z0U9)
T1 construct: native receptor / S1PR3-mCherry fusion in cultured mouse DRG neurons
Test: Fura-2 calcium imaging of DRG neurons with S1PR3 knockout control; also S1PR3-dependent tail current inhibition ([…])
Assay type: cell-based

T1 sequence (Q9Z0U9 whole entry, the tested form may be a part): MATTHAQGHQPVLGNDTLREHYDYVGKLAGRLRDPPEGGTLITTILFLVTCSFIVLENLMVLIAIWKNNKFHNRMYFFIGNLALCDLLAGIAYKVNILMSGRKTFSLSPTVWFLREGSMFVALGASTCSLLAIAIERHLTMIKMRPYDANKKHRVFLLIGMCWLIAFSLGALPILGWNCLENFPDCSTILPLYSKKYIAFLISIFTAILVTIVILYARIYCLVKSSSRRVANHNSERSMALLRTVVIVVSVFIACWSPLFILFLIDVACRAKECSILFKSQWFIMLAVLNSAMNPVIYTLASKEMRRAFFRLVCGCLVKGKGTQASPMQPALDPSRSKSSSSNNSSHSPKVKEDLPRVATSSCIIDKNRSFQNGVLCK

- EC50: 155 nM
SMILES: CCCCCCCCCCCCC/C=C/[C@@H](O)[C@@H](N)COP(=O)(O)O [S1P, Sphingosine 1-phosphate]

From publication PMC5896955, “The signaling lipid sphingosine 1-phosphate regulates mechanical pain” (eLife, 2018)
